Test results published in paper PMC8007833, “Insights into Acinetobacter baumannii fatty acid synthesis 3-oxoacyl-ACP reductases” (Scientific Reports, 2021).

Experiments:
HMwFabG (ABO12488.2) = molecular target: T1, HMwFabG (ABO12488.2) (Acinetobacter baumannii, UniProt A0A219C8F5); assay: coenzyme oxidation, absorbance at […] nm; type: biochemical; details: 200 µM NADH, 500 µM acetoacetyl-CoA, 20 mM HEPES pH 7.4, 125 mM NaCl, 37 °C, 30 min
T1 construct: gene fabG_9; codon-optimised gene in pMCSG21, E. coli BL21(DE3) pLysS; N-terminal 6-His tag cut by TEV; 463 residues, 48 kDa protomer, homodimer
T1 sequence (A0A219C8F5 1-463): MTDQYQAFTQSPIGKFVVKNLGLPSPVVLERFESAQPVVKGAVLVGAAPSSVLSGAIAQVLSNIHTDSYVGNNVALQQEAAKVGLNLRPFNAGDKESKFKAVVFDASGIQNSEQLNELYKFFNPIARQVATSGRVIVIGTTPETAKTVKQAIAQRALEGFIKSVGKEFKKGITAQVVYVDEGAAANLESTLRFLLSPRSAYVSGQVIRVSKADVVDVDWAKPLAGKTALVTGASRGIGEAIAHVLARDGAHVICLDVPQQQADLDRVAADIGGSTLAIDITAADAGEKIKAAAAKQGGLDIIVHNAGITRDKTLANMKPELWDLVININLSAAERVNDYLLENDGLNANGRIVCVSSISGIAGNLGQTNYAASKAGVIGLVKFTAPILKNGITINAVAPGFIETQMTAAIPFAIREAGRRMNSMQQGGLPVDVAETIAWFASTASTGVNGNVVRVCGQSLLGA

FabG (ABO11256.2) [1] = molecular target: T2, FabG (ABO11256.2) (Acinetobacter baumannii, UniProt V5VHN7); assay: X-ray crystal structure of co-crystal, […] Å; type: binding; details: co-crystallised at 1:10 protein to coenzyme, 0.1 M Tris pH 8.0, 2 M ammonium sulphate; coenzyme site
T2 construct: codon-optimised gene in pMCSG21, E. coli BL21(DE3) pLysS; N-terminal 6-His tag cut by TEV; 244 residues, 26 kDa protomer, homotetramer about 100 kDa
T2 sequence (V5VHN7 1-244): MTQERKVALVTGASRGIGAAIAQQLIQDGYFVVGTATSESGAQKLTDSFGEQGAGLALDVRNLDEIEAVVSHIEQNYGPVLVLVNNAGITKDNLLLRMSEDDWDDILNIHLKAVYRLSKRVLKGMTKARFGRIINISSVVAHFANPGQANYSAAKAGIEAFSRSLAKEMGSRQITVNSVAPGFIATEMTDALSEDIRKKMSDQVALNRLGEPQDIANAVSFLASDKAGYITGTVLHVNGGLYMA

FabG (ABO11256.2) [2] = molecular target: T2, FabG (ABO11256.2); assay: coenzyme oxidation, absorbance at […] nm; type: biochemical; details: 500 µM acetoacetyl-CoA, 200 µM NADPH, 20 mM HEPES pH 7.4, 125 mM NaCl, 37 °C, 30 min

Structure (SMILES) | coenzyme oxidation, absorbance at 340 nm (HMwFabG (ABO12488.2)) | X-ray crystal structure of co-crystal, 1.85 Å (FabG (ABO11256.2) [1]) | coenzyme oxidation, absorbance at 340 nm (FabG (ABO11256.2) [2])
NC(=O)C1=CN([C@@H]2O[C@H](COP(=O)(O)OP(=O)(O)OC[C@H]3O[C@@H](n4cnc5c(N)ncnc54)[C@H](O)[C@@H]3O)[C@@H](O)[C@H]2O)C=CC1 [NADH] | Our enzyme assays showed clear preference for NADH as the catalytic coenzyme |  | 
NC(=O)C1=CN([C@@H]2O[C@H](COP(=O)(O)OP(=O)(O)OC[C@H]3O[C@@H](n4cnc5c(N)ncnc54)[C@H](OP(=O)(O)O)[C@@H]3O)[C@@H](O)[C@H]2O)C=CC1 [NADPH] |  | strong positive density allowing NADPH to be modelled within each protomer | 
CC(=O)CC(=O)SCCNC(=O)CCNC(=O)[C@H](O)C(C)(C)COP(=O)(O)OP(=O)(O)OC[C@H]1O[C@@H](n2cnc3c(N)ncnc32)[C@H](O)[C@@H]1OP(=O)(O)O [acetoacetyl-CoA] | Enzyme activity of HMwFabG with acetoacetyl-CoA |  | enzyme assays were conducted in the presence of a substrate mimic, acetoacetyl-CoA
